Laboratory results taken from US9295671B2, “Benzenesulfonamide derivatives of quinoxaline, pharmaceutical compositions thereof, and their use in methods for treating cancer” (NEUPHARMA, INC., priority 2011, dated 2016).

Legend:
BRAF V600E = molecular target: T1, BRAF V600E (Homo sapiens, UniProt P15056, V600E); assay: LanthaScreen kinase assay, BRAF V600E; format: biochemical; conditions: ATP 10 μM
T1 construct: purchased Invitrogen
Description: (§1) The inhibitory activities of compounds against BRAF or BRAF V600E protein were measured using Invitrogne's LanthaScreen™ kinase assay which is based on fluorescein-labeled MAP2K1 as a substrate. The assay procedure is described as follows.
(§2) The scale utilized in Table 3 is as follows: ++++ less than 50 nM; +++ between 50 and 100 nM; ++ between 100 nM and 1 μM; and + greater than 1 μM.

[1] = tested on: A375 (human melanoma cell, BRAF V600E Mutant); assay: Inhibition of cancer cell growth, MTT or MTS assay, A375; format: cell-based; conditions: A-375, 72 h, highest concentration 10 μM (Table 5)
Description: A375 (human melanoma cell, BRAF V600E Mutant), CHL-1 (human melanoma cell, BRAF wild type), SK-MEL-28 (human melanoma cell, BRAF V600E Mutant) and SK-MEL-31(human melanoma cell, Braf WT Mutant) were purchased from ATCC (American Type Culture Collection, Manassas, Va.). All cell lines were maintained in RPMI 1640 (Hyclone) or DMEM (Hyclone) supplemented with 10% fetal bovine serum (FBS, Hyclone), glutamine (2 mM, Hyclone), and antibiotics (penicillin 100 U/mL and streptomycin 50 μg/mL) at 37° C. in a humidified atmosphere of 5% CO2 in air.
To test IC50 of inhibition of individual compounds against each cell line, A375, SK-MEL-28and SK-MEL-31 cells were first plated in 96-well plates at densities of 3000 cells/well, and CHL-1 2500 cells/well. Cells were then incubated to allow cells to adhere and grow for 24 h. Cells were then treated with a series of concentrations of compounds for 72 h. The highest concentration of compounds was 10 μM for A375 and SK-MEL-28 cells and 100 μM for CHL-1 and SK-MEL-31 cells. Cells were then removed from the incubator and medium was removed by inverting and tapping the plates. 100 μL of MTT (0.5 mg/ml) or 10 μL or MTS was added to each well followed by an incubated at 37° C. for 4 h. Then MTT was removed and 200 μL of DMSO was added to each well, followed by reading the ODs at 570 nm after a 5 second shaking cycle in a 96-well spectrophotometer. For MTS method, MTS was not removed, and the incubated solutions were directly put in a 96-well spectrophotometer for the reading of the ODs at 492 nm.
IC50 was calculated by plotting the concentration of compound vs the percentage of inhibition in treated wells using GraphPad Prism 5. […] The scale utilized in Table 5 is as follows: +++ less than 500 nM; ++ between 500 nM and 1 μM; and + greater than 1 μM.

BRAF = molecular target: T2, BRAF (Homo sapiens, UniProt P15056); assay: LanthaScreen kinase assay, BRAF; format: biochemical; conditions: ATP 1 μM
T2 construct: purchased Invitrogen
T2 sequence (P15056 whole entry): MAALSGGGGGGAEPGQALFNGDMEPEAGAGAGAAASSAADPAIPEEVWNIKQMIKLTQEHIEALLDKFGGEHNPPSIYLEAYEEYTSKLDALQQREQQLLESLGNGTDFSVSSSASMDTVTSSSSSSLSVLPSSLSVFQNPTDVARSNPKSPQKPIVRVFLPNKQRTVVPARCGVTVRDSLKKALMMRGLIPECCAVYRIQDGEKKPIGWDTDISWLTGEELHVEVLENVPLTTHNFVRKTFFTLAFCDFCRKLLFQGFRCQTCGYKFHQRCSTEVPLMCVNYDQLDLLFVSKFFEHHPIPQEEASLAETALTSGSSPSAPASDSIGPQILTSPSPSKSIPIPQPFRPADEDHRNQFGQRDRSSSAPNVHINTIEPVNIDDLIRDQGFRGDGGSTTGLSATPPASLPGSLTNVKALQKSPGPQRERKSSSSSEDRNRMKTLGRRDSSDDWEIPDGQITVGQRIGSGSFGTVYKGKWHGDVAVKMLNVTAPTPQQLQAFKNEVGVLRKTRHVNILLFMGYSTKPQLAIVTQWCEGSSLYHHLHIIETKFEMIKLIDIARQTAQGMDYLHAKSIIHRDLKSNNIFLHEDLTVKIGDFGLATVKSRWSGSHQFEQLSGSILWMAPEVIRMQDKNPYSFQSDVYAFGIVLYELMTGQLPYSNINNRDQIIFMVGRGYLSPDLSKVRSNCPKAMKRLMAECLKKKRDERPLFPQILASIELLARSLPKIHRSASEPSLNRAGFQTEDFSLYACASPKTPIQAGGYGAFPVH
Description: as §1, §2

T1 sequence (P15056 whole entry V600E): as the sequence (P15056 whole entry) above, with V600E counted along it

| IC50 (BRAF V600E) [nM] | IC50 [1] [nM] | IC50 (BRAF) [nM] | SMILES |
| --- | --- | --- | --- |
| < 50 | > 1000 | 50 to 100 | CCCS(=O)(=O)Nc1cc(F)c(F)c(C(=O)c2ccc3ncc(F)nc3c2)c1F [Compound C35, N-(2,4,5-trifluoro-3-(3-fluoroquinoxaline-6-carbonyl)phenyl)propane-1-sulfonamide] |
| < 50 | < 500 | < 50 | CCCS(=O)(=O)Nc1cc(F)c(F)c(C(=O)c2ccc3ncc(-c4ccc(C)nc4)nc3c2)c1F [Compound C34, N-(2,4,5-trifluoro-3-(3-(6-methylpyridin-3-yl)quinoxaline-6-carbonyl)phenyl)propane-1-sulfonamide] |
| < 50 | < 500 | < 50 | CCCS(=O)(=O)Nc1cc(F)c(F)c(C(=O)c2ccc3ncc(-n4ccnc4)nc3c2)c1F [Compound C23, N-(3-(3-(1H-imidazol-1-yl)quinoxaline-6-carbonyl)-2,4,5-trifluorophenyl)propane-1-sulfonamide] |
| < 50 | < 500 | < 50 | CCCS(=O)(=O)Nc1cc(F)c(F)c(C(=O)c2ccc3ncc(N4CCNCC4)nc3c2)c1F [Compound C24, N-(2,4,5-trifluoro-3-(3-(piperazin-1-yl)quinoxaline-6-carbonyl)phenyl)propane-1-sulfonamide] |
| 100 to 1000 | > 1000 | 100 to 1000 | CCCS(=O)(=O)Nc1cc(F)c(F)c(C(=O)c2ccc3ncc(C)nc3c2)c1F [Compound C19, N-(2,4,5-trifluoro-3-(3-methylquinoxaline-6-carbonyl)phenyl)propane-1-sulfonamide] |
| < 50 | < 500 | 50 to 100 | CCCS(=O)(=O)Nc1cc(F)c(F)c(C(=O)c2ccc3ncc(-n4cncc4C)nc3c2)c1F [Compound C40, N-(2,4,5-trifluoro-3-(3-(5-methyl-1H-imidazol-1-yl)quinoxaline-6-carbonyl)phenyl)propane-1-sulfonamide] |
| < 50 | < 500 | < 50 | CCCS(=O)(=O)Nc1cc(F)c(F)c(C(=O)c2ccc3ncc(-c4cn[nH]c4)nc3c2)c1F [Compound C27, N-(3-(3-(1H-pyrazol-4-yl)quinoxaline-6-carbonyl)-2,4,5-trifluorophenyl)propane-1-sulfonamide] |
| < 50 | < 500 | 50 to 100 | CCCS(=O)(=O)Nc1cc(F)c(F)c(C(=O)c2ccc3ncc(-n4ccnc4C)nc3c2)c1F [Compound C20, N-(2,4,5-trifluoro-3-(3-(2-methyl-1H-imidazol-1-yl)quinoxaline-6-carbonyl)phenyl)propane-1-sulfonamide] |
| < 50 | < 500 | < 50 | CCCS(=O)(=O)Nc1cc(F)c(F)c(C(=O)c2ccc3ncc(-c4ccncc4)nc3c2)c1F [Compound C33, N-(2,4,5-trifluoro-3-(3-(pyridin-4-yl)quinoxaline-6-carbonyl)phenyl)propane-1-sulfonamide] |
| < 50 | < 500 | < 50 | CCCS(=O)(=O)Nc1cc(F)c(F)c(C(=O)c2ccc3ncc(-n4cnc(C)c4)nc3c2)c1F [Compound C21, N-(2,4,5-trifluoro-3-(3-(4-methyl-1H-imidazol-1-yl)quinoxaline-6-carbonyl)phenyl)propane-1-sulfonamide] |
| < 50 | 500 to 1000 | 50 to 100 | CCCS(=O)(=O)Nc1cc(F)c(F)c(C(=O)c2ccc3ncc(C#N)nc3c2)c1F [Compound C36, N-(3-(3-cyanoquinoxaline-6-carbonyl)-2,4,5-trifluorophenyl)propane-1-sulfonamide] |

Second part, the molecule before the results:

| SMILES | IC50 (BRAF V600E) [nM] | IC50 [1] [nM] | IC50 (BRAF) [nM] |
| --- | --- | --- | --- |
| CCCS(=O)(=O)Nc1cc(F)c(F)c(C(=O)c2ccc3ncc(-c4cccnc4)nc3c2)c1F [Compound C30, N-(2,4,5-trifluoro-3-(3-(pyridin-3-yl)quinoxaline-6-carbonyl)phenyl)propane-1-sulfonamide] | < 50 | < 500 | < 50 |
| CCCS(=O)(=O)Nc1ccc(F)c(C(=O)c2ccc3ncc(N4CCOCC4)nc3c2)c1Cl [Compound C41, N-(2-chloro-4-fluoro-3-(3-morpholinoquinoxaline-6-carbonyl)phenyl)propane-1-sulfonamide] | > 1000 | – | > 1000 |
| CCCS(=O)(=O)Nc1cc(F)c(F)c(C(=O)c2ccc3ncc(-c4ccccc4)nc3c2)c1F [Compound C26, N-(2,4,5-trifluoro-3-(3-phenylquinoxaline-6-carbonyl)phenyl)propane-1-sulfonamide] | < 50 | 500 to 1000 | 100 to 1000 |
| CCCS(=O)(=O)Nc1cc(F)c(F)c(C(=O)c2ccc3ncc(-c4ccc(F)cc4)nc3c2)c1F [Compound C28, N-(2,4,5-trifluoro-3-(3-(4-fluorophenyl)quinoxaline-6-carbonyl)phenyl)propane-1-sulfonamide] | 50 to 100 | 500 to 1000 | 100 to 1000 |
| CCCS(=O)(=O)Nc1ccc(F)c(C(=O)c2ccc3ncc(N4CCOCC4)nc3c2)c1F [Compound C38, N-(2,4-difluoro-3-(3-morpholinoquinoxaline-6-carbonyl)phenyl)propane-1-sulfonamide] | 100 to 1000 | < 500 | 100 to 1000 |
| O=C(c1ccc2ncc(N3CCOCC3)nc2c1)c1c(F)c(F)cc(NS(=O)(=O)C2CC2)c1F [Compound C29, N-(2,4,5-trifluoro-3-(3-morpholinoquinoxaline-6-carbonyl)phenyl)cyclopropanesulfonamide] | 100 to 1000 | < 500 | 100 to 1000 |
| CCCS(=O)(=O)Nc1cc(F)c(F)c(C(=O)c2ccc3ncc(OCCOC)nc3c2)c1F [Compound C22, N-(2,4,5-trifluoro-3-(3-(2-methoxyethoxy)quinoxaline-6-carbonyl)phenyl)propane-1-sulfonamide] | 50 to 100 | < 500 | 50 to 100 |
